Measurements published in ChEMBL document CHEMBL5143685, “Valorisation of the diterpene podocarpic acid - Antibiotic and antibiotic enhancing activities of polyamine conjugates” (Bioorg Med Chem, 2022).

Legend:
Klebsiella pneumoniae = experiment: Antibacterial activity against Klebsiella pneumoniae ATCC 700603 assessed as inhibition of bacterial growth measured after 18 hrs by resazurin dye based analysis; type: functional
Escherichia coli [1] = experiment: Antibacterial activity against Escherichia coli ATCC 25922 assessed as inhibition of bacterial growth measured after 18 hrs by resazurin dye based analysis; type: functional
Pseudomonas aeruginosa [2] = experiment: Antibacterial activity against Pseudomonas aeruginosa ATCC 27853 assessed as inhibition of bacterial growth measured after 18 hrs by resazurin dye based analysis; type: functional
Staphylococcus aureus = experiment: Antibacterial activity against methicillin-resistant Staphylococcus aureus ATCC 43300 assessed as inhibition of bacterial growth measured after 18 hrs by resazurin dye based analysis; type: functional
Acinetobacter baumannii = experiment: Antibacterial activity against Acinetobacter baumannii ATCC 19606 assessed as inhibition of bacterial growth measured after 18 hrs by resazurin dye based analysis; type: functional
Candida albicans = experiment: Antifungal activity against Candida albicans ATCC 90028 assessed as fungal growth inhibition incubated for 36 hrs by resazurin dye based analysis; type: functional
Cryptococcus neoformans = experiment: Antifungal activity against Cryptococcus neoformans ATCC 208821 assessed as fungal growth inhibition incubated for 36 hrs by resazurin dye based analysis; type: functional
[3] = Cytotoxicity against HEK293 cells assessed as cell growth inhibition measured after 20 hrs by resazurin dye based assay; type: toxicity; conditions: human
Saccharomyces cerevisiae [4] = experiment: Antifungal activity against Saccharomyces cerevisiae BY4743 assessed as fungal growth inhibition incubated for 24 hrs by plate reader method; type: functional, organism-based; conditions: BY4743, 24 h
Saccharomyces cerevisiae [5] = experiment: Antifungal activity against Saccharomyces cerevisiae YJM789 assessed as fungal growth inhibition incubated for 24 hrs by plate reader method; type: functional, organism-based; conditions: YJM789, 24 h
Saccharomyces cerevisiae [6] = experiment: Antifungal activity against Saccharomyces cerevisiae PA3-10-3 variant assessed as fungal growth inhibition incubated for 24 hrs by plate reader method; type: functional, organism-based
Pseudomonas aeruginosa [7] = experiment: Antibiotic adjuvant activity against Pseudomonas aeruginosa ATCC 27853 assessed as doxycycline MIC measured after 18 hrs in presence of doxycycline; type: functional
Escherichia coli [8] = experiment: Antibiotic adjuvant activity against Escherichia coli ATCC 25922 assessed as erythromycin MIC measured after 18 hrs in presence of erythromycin; type: functional
[9] = Selectivity index, ratio of IC50 for HEK293 to MIC for methicillin-resistant Staphylococcus aureus ATCC 43300; type: toxicity; conditions: human, HEK293 cells; read-out: Selectivity Index

Row | SMILES | MIC (Klebsiella pneumoniae) [µM] | MIC (Escherichia coli [1]) [µM] | MIC (Pseudomonas aeruginosa [2]) [µM] | MIC (Staphylococcus aureus) [µM] | MIC (Acinetobacter baumannii) [µM] | MIC (Candida albicans) [µM] | MIC (Cryptococcus neoformans) [µM] | IC50 at 20 h [3] [µM] | IC50 (Saccharomyces cerevisiae [4]) [µM] | IC50 (Saccharomyces cerevisiae [5]) [µM] | IC50 (Saccharomyces cerevisiae [6]) [µM] | MIC (Pseudomonas aeruginosa [7]) [µM] | MIC (Escherichia coli [8]) [µM] | selectivity ratio [9]
1 | C[C@]1(C(=O)O)CCC[C@]2(C)c3cc(OC(=O)CCCNCCCCCCCCCCNCCCNC(=O)Oc4ccc5c(c4)[C@@]4(C)CCC[C@](C)(C(=O)O)[C@@H]4CC5)ccc3CC[C@@H]12.O=C(O)C(F)(F)F.O=C(O)C(F)(F)F | > 28.7 | > 28.7 | > 28.7 | > 28.7 | > 28.7 | > 28.7 | 7.17 | > 28.7 | 3.59 | 14.3 | > 25 |  |  | 
2 | C[C@]1(C(=O)NCCCNCCCCCCCCCCCCN)CCC[C@]2(C)c3cc(OC(=O)NCCCNCCCCCCCCCCCCN)ccc3CC[C@@H]12.O=C(O)C(F)(F)F.O=C(O)C(F)(F)F.O=C(O)C(F)(F)F.O=C(O)C(F)(F)F | 12.8 | ≤ 0.2 | > 25.5 | ≤ 0.2 | 6.38 | 25.5 | > 25.5 | 0.33 |  |  |  | 50 |  | 
3 | C[C@]1(C(=O)NCCCNCCCCCCN)CCC[C@]2(C)c3cc(OC(=O)NCCCNCCCCCCN)ccc3CC[C@@H]12.O=C(O)C(F)(F)F.O=C(O)C(F)(F)F.O=C(O)C(F)(F)F.O=C(O)C(F)(F)F | > 29.5 | > 29.5 | > 29.5 | > 29.5 | > 29.5 | > 29.5 | > 29.5 | > 29.5 |  |  |  |  | 50 | 
4 | C[C@]1(C(=O)NCCCNCCCCNCCCNC(=O)[C@@]2(C)CCC[C@]3(C)c4cc(O)ccc4CC[C@@H]23)CCC[C@]2(C)c3cc(O)ccc3CC[C@@H]12.O=C(O)C(F)(F)F.O=C(O)C(F)(F)F | > 33.9 | > 33.9 | > 33.9 | ≤ 0.26 | > 33.9 | > 33.9 | 17 | > 33.9 |  |  |  |  | 26.5 | > 130
5 | C[C@]1(C(=O)NCCCNCCCCN)CCC[C@]2(C)c3cc(OC(=O)NCCCNCCCCN)ccc3CC[C@@H]12.O=C(O)C(F)(F)F.O=C(O)C(F)(F)F.O=C(O)C(F)(F)F.O=C(O)C(F)(F)F | > 31.1 | > 31.1 | > 31.1 | > 31.1 | > 31.1 | > 31.1 | > 31.1 | > 31.1 |  |  |  | 25 | 25 | 
6 | C[C@]1(C(=O)NCCCNCCCCCCCCCCN)CCC[C@]2(C)c3cc(OC(=O)NCCCNCCCCCCCCCCN)ccc3CC[C@@H]12.O=C(O)C(F)(F)F.O=C(O)C(F)(F)F.O=C(O)C(F)(F)F.O=C(O)C(F)(F)F | > 26.7 | > 26.7 | > 26.7 | 26.7 | > 26.7 | > 26.7 | > 26.7 | 20.6 |  |  |  | 50 | 3.12 | 
7 | C[C@@]12CCC[C@](C)(C(=O)O)[C@H]1CCc1ccc(OC(=O)CCCNCCCCCCNCCCNC(=O)Oc3ccc4c(c3)[C@@]3(C)CCC[C@](C)(C(=O)O)[C@@H]3CC4)cc12.O=C(O)C(F)(F)F.O=C(O)C(F)(F)F | > 30.2 | > 30.2 | > 30.2 | 30.2 | > 30.2 | 30.2 | 30.2 | > 30.2 | 3.59 | 14.3 |  |  |  | 
8 | C[C@]1(C(=O)NCCCNCCCCCCCCCCCCNCCCNC(=O)[C@@]2(C)CCC[C@]3(C)c4cc(O)ccc4CC[C@@H]23)CCC[C@]2(C)c3cc(O)ccc3CC[C@@H]12.O=C(O)C(F)(F)F.O=C(O)C(F)(F)F | > 30.3 | > 30.3 | > 30.3 | ≤ 0.24 | > 30.3 | 7.58 | ≤ 0.24 | > 30.3 |  |  |  |  |  | 
9 | COC(=O)[C@@]1(C)CCC[C@]2(C)c3cc(OC(=O)CCCNCCCCCCCCNCCCNC(=O)Oc4ccc5c(c4)[C@@]4(C)CCC[C@](C)(C(=O)OC)[C@@H]4CC5)ccc3CC[C@@H]12.O=C(O)C(F)(F)F.O=C(O)C(F)(F)F | > 28.7 | > 28.7 | > 28.7 | ≤ 0.22 | > 28.7 | ≤ 0.22 | 0.45 | > 28.7 |  |  |  |  |  | 
10 | C[C@]1(C(=O)O)CCC[C@]2(C)c3cc(OC(=O)NCCCNCCCCCCCN)ccc3CC[C@@H]12.O=C(O)C(F)(F)F.O=C(O)C(F)(F)F | > 44.7 | > 44.7 | > 44.7 | > 44.7 | > 44.7 | > 44.7 | > 44.7 | > 44.7 |  |  |  |  |  | 
11 | C[C@]1(C(=O)O)CCC[C@]2(C)c3cc(OC(=O)CCCNCCCCCCCNCCCNC(=O)Oc4ccc5c(c4)[C@@]4(C)CCC[C@](C)(C(=O)O)[C@@H]4CC5)ccc3CC[C@@H]12.O=C(O)C(F)(F)F.O=C(O)C(F)(F)F | > 29.8 | > 29.8 | > 29.8 | > 29.8 | > 29.8 | 29.8 | 7.45 | > 29.8 |  |  |  |  |  | 
12 | C[C@]1(C(=O)NCCCNCCCCCCCCCCCCN)CCC[C@]2(C)c3cc(O)ccc3CC[C@@H]12.O=C(O)C(F)(F)F.O=C(O)C(F)(F)F | > 43.1 | 43.1 | > 43.1 | 5.4 | 43.1 | 43.1 | 43.1 | 26.2 |  |  |  |  |  | 4.9
13 | CCCCCNC(=O)[C@@]1(C)CCC[C@]2(C)c3cc(OC(=O)CCCNCCCCCCCNCCCNC(=O)Oc4ccc5c(c4)[C@@]4(C)CCC[C@](C)(C(=O)NCCCCC)[C@@H]4CC5)ccc3CC[C@@H]12.O=C(O)C(F)(F)F.O=C(O)C(F)(F)F | > 26.4 | > 26.4 | > 26.4 | ≤ 0.21 | > 26.4 | ≤ 0.21 | 3.3 | > 26.4 |  |  |  |  |  | 
14 | CCCCCNC(=O)[C@@]1(C)CCC[C@]2(C)c3cc(OC(=O)CCCNCCCCNCCCNC(=O)Oc4ccc5c(c4)[C@@]4(C)CCC[C@](C)(C(=O)NCCCCC)[C@@H]4CC5)ccc3CC[C@@H]12.O=C(O)C(F)(F)F.O=C(O)C(F)(F)F | > 27.4 | > 27.4 | > 27.4 | ≤ 0.21 | > 27.4 | 13.7 | > 27.4 | > 27.4 |  |  |  |  |  | 
15 | COC(=O)[C@@]1(C)CCC[C@]2(C)c3cc(OC(=O)CCCNCCCCCCCNCCCNC(=O)Oc4ccc5c(c4)[C@@]4(C)CCC[C@](C)(C(=O)OC)[C@@H]4CC5)ccc3CC[C@@H]12.O=C(O)C(F)(F)F.O=C(O)C(F)(F)F | > 29.1 | > 29.1 | > 29.1 | ≤ 0.23 | > 29.1 | ≤ 0.23 | 7.26 | > 29.1 |  |  |  |  |  | 
16 | C[C@]1(C(=O)NCCCNCCCCCCCN)CCC[C@]2(C)c3cc(OC(=O)NCCCNCCCCCCCN)ccc3CC[C@@H]12.O=C(O)C(F)(F)F.O=C(O)C(F)(F)F.O=C(O)C(F)(F)F.O=C(O)C(F)(F)F | > 29.7 | > 29.7 | > 29.7 | > 28.7 | > 29.7 | > 29.7 | > 29.7 | > 28.7 |  |  |  |  | 50 | 
17 | C[C@]1(C(=O)NCCCNCCCCCCCCCCN)CCC[C@]2(C)c3cc(O)ccc3CC[C@@H]12.O=C(O)C(F)(F)F.O=C(O)C(F)(F)F | > 44.8 | > 44.8 | > 44.8 | > 44.8 | > 44.8 | > 44.8 | > 44.8 | > 44.8 |  |  |  |  |  | 
18 | C[C@]1(C(=O)NCCCNCCCCCCNCCCNC(=O)[C@@]2(C)CCC[C@]3(C)c4cc(O)ccc4CC[C@@H]23)CCC[C@]2(C)c3cc(O)ccc3CC[C@@H]12.O=C(O)C(F)(F)F.O=C(O)C(F)(F)F | > 32.9 | 32.9 | > 32.9 | 32.9 | > 32.9 | 32.9 | 32.9 | 28.6 |  |  |  |  |  | 
19 | COC(=O)[C@@]1(C)CCC[C@]2(C)c3cc(OC(=O)CCCNCCCCCCCCCCCCNCCCNC(=O)Oc4ccc5c(c4)[C@@]4(C)CCC[C@](C)(C(=O)OC)[C@@H]4CC5)ccc3CC[C@@H]12.O=C(O)C(F)(F)F.O=C(O)C(F)(F)F | > 27.3 | > 27.3 | > 27.3 | ≤ 0.21 | > 27.3 | ≤ 0.21 | 0.43 | > 27.3 |  |  |  |  |  | 
20 | C[C@]1(C(=O)NCCCNCCCCCCCCN)CCC[C@]2(C)c3cc(OC(=O)NCCCNCCCCCCCCN)ccc3CC[C@@H]12.O=C(O)C(F)(F)F.O=C(O)C(F)(F)F.O=C(O)C(F)(F)F.O=C(O)C(F)(F)F | > 28 | > 28 | > 28 | > 28 | > 28 | > 28 | > 28 | > 28 |  |  |  |  |  | 
21 | CCCCCNC(=O)[C@@]1(C)CCC[C@]2(C)c3cc(OC(=O)CCCNCCCCCCNCCCNC(=O)Oc4ccc5c(c4)[C@@]4(C)CCC[C@](C)(C(=O)NCCCCC)[C@@H]4CC5)ccc3CC[C@@H]12.O=C(O)C(F)(F)F.O=C(O)C(F)(F)F | > 26.7 | > 26.7 | > 26.7 | ≤ 0.21 | > 26.7 | 1.67 | 6.68 | > 26.7 |  |  |  |  |  | 
